From patent publication US5969017A, “Methods of treating or preventing cardiac arrhythmia” (Merck & Co., Inc., priority 1997, dated 1999) come the findings set out here.

This assay relates to other cardiac K+ channels. Nature of the assay: Block of the other cardiac K+ channels (IK1, IKr and IKs, summary). Format: cell-based, guinea pig. The conditions noted are these: summary of Table 2. Here is the method: D. Measurement of IKs IKr and IK1 in Guinea Pig Ventricular Myocytes.
Guinea pig ventricular myocytes were isolated using a modification of the procedure described by Mitra et al., Am. J. Physiol. 249:H1056-60 (1985). Excised hearts were perfused through the aorta (retrograde fashion) at a rate of 10 ml/min with oxygenated, warmed (37° C.) solutions described below. The heart was initially perfused for 7 minutes with a Tyrode's solution containing, in mM: 132 NaCl, 4 KCl, 1.2 MgCl2, 10 HEPES, 5 glucose, pH=7.2. The heart was then perfused with the same nominally Ca^2+ -free solution containing 150 units/ml Type II collagenase (Worthington) and 0.5 units/ml Type XIV protease (Sigma) for 8 minutes. This perfusate was followed by a Tyrode's solution contianing 0.2 mM CaCl2 (without enzymes) for 5 minutes. The digested ventricles were cut into small pieces and gently shaken until cells were visibly dispersed. The cells were stored at room temperature until use, within 8 hours after isolation.
Microelectrode fabrication:
The suction microelectrode technique described by Giles, W. R. and Shibata, E. F., "Voltage clamp of bull-frog cardiac pacemaker cells: a quantitative analysis of potassium currents", J. Physiol. 368:265-292 (1985) was used to voltage clamp the cells. Microelectrodes were made by using a two stage puller from square bore (1.0 mm o.d.) borosilicate capillary tubing. Pipettes were filled with 0.5 M K gluconate, 25 mM KCl and 5 mM K2 ATP. The electrodes had resistances of 3 to 7 Mohm when filled with this solution. After establishing whole-cell recording mode, negative pressure was maintained on the pipette using a 1 ml gas-tight syringe attached via air tight tubing to the suction port of the microelectrode holder. This minimized dialysis of the cell with the pipette solution.
To record K^+ currents, the cells were bathed in a Ca^2+ -free Tyrode's solution containing […]. […] To record Ca^2+ currents, the cells were bathed in Tyrode's solution containing 1.8 mM Ca^2+ without nisoldipine. The cell chamber was superfused with solutions at a rate of 1-2 ml/minute, while maintaining the temperture at […]. A List EPC-7 clamp amplifier was used to voltage clamp the isolated cells. Series resistance was compensated 40-70%, and current was low-pass filtered at a cut-off frequency of 1 kHz. […] Data was analyzed as % block from control membrane currents.
Nisoldipine was prepared as a 4 mM stock solution in polyethylne glycol 200. […] At the final concentrations used, neither polyethylene glycol 200 nor dimethyl sulfoxide had any effect on any of the measured membrane currents.
Selectivity for block of cardiac K^+ channels, IK1, IKr, and IKs was determined as previously described in guinea pig ventricular myocytes (U.S. Pat. No. 5,428,031).

Take `COc1ccc(-n2nc(Sc3ccc(Cl)cc3)c(C)c(C#N)c2=O)cc1` [C, 6-(4-Chlorophenylthio)-2-(4-methoxyphenyl)-5-methyl-3-oxo-2,3-dihydropyridazine-4-carbonitrile]: the “blockade of the other cardiac K+ channels (in words)” value (“blockade” below) is “minimal or absent”.

In the case of `CC1CCC(C(C)C)C(P(=O)(c2ccccc2)c2ccccc2)C1` (stereo not shown) [A, (2-Isopropyl-5-methylcyclohexyl)diphenylphosphine oxide], the “blockade” value is “minimal or absent”.

Take `Cc1cc(C)c(CP(=O)(c2ccccc2)c2ccccc2)c(-c2ccc(F)c(C)c2)c1` [B, 2-(Diphenylphosphinylmethyl)-4'-fluoro-3,5,3'-trimethyl-biphenyl]: the “blockade” value was “minimal or absent”.

For the molecule `COc1ccc(-n2nc(Sc3ccc(C)cc3)c(C)c(C#N)c2=O)cc1` [D], the “blockade” value was “minimal or absent”.
